Measurements as given in ChEMBL document CHEMBL3421589, “Regioselective chemical and rapid enzymatic synthesis of a novel redox – Antiproliferative molecular hybrid” (Eur J Med Chem, 2015).
Active and inactive are the calls of the source. The calls are words filed in the database; no cut-off is given here.

Tests used:
[1] = (§1) Cytotoxicity against human T24 cells after 48 hrs by SRB assay; format: functional, cell-based; details: T-24, 48 h
T-24 [2] = assay: as §1; format: functional, cell-based
MRC5 [3] = assay: Cytotoxicity against human MRC5 cells after 48 hrs by SRB assay; format: functional, cell-based; details: for IC50: MRC5, 48 h
T-24 [4] = assay: Ratio of Gemcitabine IC50 to Compound IC50 for human T24 cells after 48 hrs by SRB assay; format: functional
A549 [5] = assay: Cytotoxicity against human A549 cells after 48 hrs by SRB assay; format: functional, cell-based; details: for IC50: A549, 48 h
A549 [6] = assay: Induction of H2O2 level in human A549 cells at 1 uM after 30 mins by flow cytometry; format: functional, cell-based
MRC5 [7] = assay: Ratio of Gemcitabine IC50 to Compound IC50 for human MRC5 cells after 48 hrs by SRB assay; format: functional
A549 [8] = assay: Ratio of Gemcitabine IC50 to Compound IC50 for human A549 cells after 48 hrs by SRB assay; format: functional
MRC5 [9] = assay: Cytotoxicity against human MRC5 cells assessed as dose reduction index ratio treated at sequential combination at 2:1 alpha-lipoic acid to compound ratio after 48 hrs by SRB assay in presence of alpha-lipoic acid; format: functional
A549 [10] = assay: Cytotoxicity against human A549 cells assessed as inhibition fraction treated at 5:1 alpha-lipoic acid to compound ratio after 48 hrs by SRB assay in presence of alpha-lipoic acid; format: functional
MRC5 [11] = assay: Cytotoxicity against human MRC5 cells treated at LA + compound sequent. LA for 24 hrs), LA + GEM (24 hrs additional, total 48 hrs) 2:1 alpha-lipoic acid to compound ratio after 48 hrs by SRB assay in presence of alpha-lipoic acid; format: functional, cell-based
[12] = Cytotoxicity against human T24 cells treated at LA + compound sequent. compound for 24 hrs, LA + compound for 24 hrs additional, total 48 hrs 2:1 and 5:1 alpha-lipoic acid to compound ratio after 48 hrs by SRB assay in presence of alpha-lipoic acid; format: functional, cell-based; details: T-24
A549 [13] = assay: Cytotoxicity against human A549 cells assessed as dose reduction index ratio treated at simultaneous combination at 5:1 alpha-lipoic acid to compound ratio after 48 hrs by SRB assay in presence of alpha-lipoic acid; format: functional
A549 [14] = assay: (§2) Cytotoxicity against human A549 cells assessed as inhibition fraction treated at sequential combination LA + compound sequent. compound for 24 hrs, LA + compound for 24 hrs additional, total 48 hrs 2:1 and 5:1 alpha-lipoic acid to compound ratio after 48 hrs by SRB assay in presence of alpha-lipoic acid; format: functional
MRC5 [15] = assay: Cytotoxicity against human MRC5 cells treated at LA + compound sequent. compound for 24 hrs, LA + compound for 24 hrs additional, total 48 hrs 2:1 and 5:1 alpha-lipoic acid to compound ratio after 48 hrs by SRB assay in presence of alpha-lipoic acid; format: functional, cell-based
MRC5 [16] = assay: Cytotoxicity against human MRC5 cells treated at 2:1 and 5:1 alpha-lipoic acid to compound ratio after 48 hrs by SRB assay in presence of alpha-lipoic acid; format: functional, cell-based; details: MRC5, 48 h
A549 [17] = assay: Cytotoxicity against human A549 cells assessed as dose reduction index ratio treated at sequential combination at 2:1 alpha-lipoic acid to compound ratio after 48 hrs by SRB assay in presence of alpha-lipoic acid; format: functional
MRC5 [18] = assay: Cytotoxicity against human MRC5 cells assessed as dose reduction index ratio treated at simultaneous combination at 5:1 alpha-lipoic acid to compound ratio after 48 hrs by SRB assay in presence of alpha-lipoic acid; format: functional
A549 [19] = assay: Cytotoxicity against human A549 cells treated at LA + compound sequent. LA for 24 hrs), LA + GEM (24 hrs additional, total 48 hrs) 2:1 alpha-lipoic acid to compound ratio after 48 hrs by SRB assay in presence of alpha-lipoic acid; format: functional, cell-based
A549 [20] = assay: Cytotoxicity against human A549 cells treated at LA + compound sequent. compound for 24 hrs, LA + compound for 24 hrs additional, total 48 hrs 2:1 and 5:1 alpha-lipoic acid to compound ratio after 48 hrs by SRB assay in presence of alpha-lipoic acid; format: functional, cell-based
[21] = Cytotoxicity against human T24 cells treated at LA + compound sequent. LA for 24 hrs), LA + GEM (24 hrs additional, total 48 hrs) 5:1 alpha-lipoic acid to compound ratio after 48 hrs by SRB assay in presence of alpha-lipoic acid; format: functional, cell-based; details: T-24
A549 [22] = assay: Cytotoxicity against human A549 cells assessed as inhibition fraction treated at 2:1 alpha-lipoic acid to compound ratio after 48 hrs by SRB assay in presence of alpha-lipoic acid; format: functional
A549 [23] = assay: Induction of H2O2 level in human A549 cells at 1 uM after 5 to 30 mins by flow cytometry; format: functional, cell-based
MRC5 [24] = assay: Cytotoxicity against human MRC5 cells assessed as dose reduction index ratio treated at sequential combination at 5:1 alpha-lipoic acid to compound ratio after 48 hrs by SRB assay in presence of alpha-lipoic acid; format: functional
A549 [25] = assay: Cytotoxicity against human A549 cells treated at LA + compound sequent. LA for 24 hrs), LA + GEM (24 hrs additional, total 48 hrs) 5:1 alpha-lipoic acid to compound ratio after 48 hrs by SRB assay in presence of alpha-lipoic acid; format: functional, cell-based
A549 [26] = assay: Cytotoxicity against human A549 cells assessed as combination index treated at 5:1 alpha-lipoic acid to compound ratio after 48 hrs by SRB assay in presence of alpha-lipoic acid; format: functional
A549 [27] = assay: Cytotoxicity against human A549 cells assessed as combination index treated at 2:1 alpha-lipoic acid to compound ratio after 48 hrs by SRB assay in presence of alpha-lipoic acid; format: functional
MRC5 [28] = assay: Cytotoxicity against human MRC5 cells treated at LA + compound sequent. LA for 24 hrs), LA + GEM (24 hrs additional, total 48 hrs) 5:1 alpha-lipoic acid to compound ratio after 48 hrs by SRB assay in presence of alpha-lipoic acid; format: functional, cell-based
A549 [29] = assay: Cytotoxicity against human A549 cells assessed as dose reduction index ratio treated at simultaneous combination at 0.6 fraction inhibition after 48 hrs by SRB assay in presence of alpha-lipoic acid; format: functional
A549 [30] = assay: Cytotoxicity against human A549 cells assessed as dose reduction index ratio treated at sequential combination at 5:1 alpha-lipoic acid to compound ratio after 48 hrs by SRB assay in presence of alpha-lipoic acid; format: functional
MRC5 [31] = assay: Cytotoxicity against human MRC5 cells assessed as dose reduction index ratio treated at simultaneous combination at 2:1 alpha-lipoic acid to compound ratio after 48 hrs by SRB assay in presence of alpha-lipoic acid; format: functional
A549 [32] = assay: Cytotoxicity against human A549 cells treated at 2:1 and 5:1 alpha-lipoic acid to compound ratio after 48 hrs by SRB assay in presence of alpha-lipoic acid; format: functional, cell-based; details: A549, 48 h
[33] = Cytotoxicity against human T24 cells treated at LA + compound sequent. LA for 24 hrs), LA + GEM (24 hrs additional, total 48 hrs) 2:1 alpha-lipoic acid to compound ratio after 48 hrs by SRB assay in presence of alpha-lipoic acid; format: functional, cell-based; details: T-24
A549 [34] = assay: as §2, with “combination index” for “inhibition fraction”; format: functional
[35] = Cytotoxicity against human T24 cells treated at 2:1 and 5:1 alpha-lipoic acid to compound ratio after 48 hrs by SRB assay in presence of alpha-lipoic acid; format: functional, cell-based; details: T-24, 48 h
A549 [36] = assay: Cytotoxicity against human A549 cells assessed as inhibition fraction treated at 5:1 compound to GEM ratio after 48 hrs by SRB assay in presence of GEM; format: functional
A549 [37] = assay: Cytotoxicity against human A549 cells assessed as dose reduction index ratio treated at sequential combination at 5:1 compound to GEM ratio after 48 hrs by SRB assay in presence of GEM; format: functional
A549 [38] = assay: Cytotoxicity against human A549 cells assessed as inhibition fraction treated at 2:1 compound to GEM ratio after 48 hrs by SRB assay in presence of GEM; format: functional
A549 [39] = assay: Induction of H2O2 level in human A549 cells at 1 uM after 5 mins by flow cytometry; format: functional, cell-based
A549 [40] = assay: Cytotoxicity against human A549 cells assessed as inhibition fraction treated at sequential combination LA + compound sequent. compound for 24 hrs, LA + compound for 24 hrs additional, total 48 hrs 2:1 and 5:1 compound to GEM ratio after 48 hrs by SRB assay in presence of GEM; format: functional
A549 [41] = assay: Cytotoxicity against human A549 cells assessed as dose reduction index ratio treated at simultaneous combination at 0.8 fraction inhibition after 48 hrs by SRB assay in presence of alpha-lipoic acid; format: functional
A549 [42] = assay: Cytotoxicity against human A549 cells assessed as dose reduction index ratio treated at sequential combination at 2:1 compound to GEM ratio after 48 hrs by SRB assay in presence of GEM; format: functional

Nc1ccn([C@@H]2O[C@H](COC(=O)CCCC[C@@H]3CCSS3)[C@@H](O)C2(F)F)c(=O)n1
IC50 [1]: 5.3 nM | inhibition (T-24 [2]): Dose-dependent effect | inhibition (MRC5 [3]): Dose-dependent effect | IC50 (MRC5 [3]): 5 nM | Ratio (T-24 [4]): 1.3 | inhibition (A549 [5]): Dose-dependent effect | IC50 (A549 [5]): < 4.4 nM | Activity (A549 [6]): Active | Ratio (MRC5 [7]): 1.24 | Ratio (A549 [8]): 1.54

Nc1ccn([C@@H]2O[C@H](CO)[C@@H](O)C2(F)F)c(=O)n1 [GEMCITABINE]
CI (MRC5 [9]): 2.06 | IC50 [1]: 6.9 nM | inhibition (T-24 [2]): Dose-dependent effect | Ratio (A549 [10]): 0.1 | IC50 (MRC5 [11]): 21.6 nM | IC50 [12]: < 3.9 nM | Inhibition_index (A549 [13]): 4.22 | Ratio (A549 [14]): 0.65 | IC50 (MRC5 [15]): < 3.9 nM | inhibition (MRC5 [3]): Dose-dependent effect | IC50 (MRC5 [3]): 6.3 nM | IC50 (MRC5 [16]): < 3.9 nM | Inhibition_index (A549 [17]): 1.71 | CI (MRC5 [18]): 7.88 | inhibition (A549 [5]): Dose-dependent effect | IC50 (A549 [5]): 6.8 nM | IC50 (A549 [19]): 29 nM | IC50 (A549 [20]): 3.9 nM | IC50 [21]: 17 nM | Ratio (A549 [22]): 0.6 | Activity (A549 [23]): inactive | CI (MRC5 [24]): 2.73 | IC50 (A549 [25]): > 1000 nM | CI (A549 [26]): >1 | CI (A549 [27]): <1 | IC50 (MRC5 [28]): 6.8 nM | Inhibition_index (A549 [29]): 5.76 | Inhibition_index (A549 [30]): 1.67 | CI (MRC5 [31]): 8.15 | IC50 (A549 [32]): < 3.9 nM | IC50 [33]: 18 nM | CI (A549 [34]): >1 | IC50 [35]: < 3.9 nM

O=C(O)CCCCC1CCSS1 (stereo not drawn) [LIPOIC ACID, ALPHA]
IC50 [1]: > 100000 nM | inhibition (T-24 [2]): Dose-dependent effect | Ratio (A549 [36]): 0.9 | Inhibition_index (A549 [37]): 488.47 | inhibition (MRC5 [3]): Dose-dependent effect | IC50 (MRC5 [3]): > 100000 nM | inhibition (A549 [5]): Dose-dependent effect | IC50 (A549 [5]): > 100000 nM | Ratio (A549 [38]): 0.8 | Activity (A549 [39]): Active | Ratio (A549 [40]): 0.85 | Inhibition_index (A549 [41]): 1572.29 | Inhibition_index (A549 [42]): 1243.87
